Data from article PMC9685055, “Biological activity of new bioactive steroids deriving from biotransformation of cortisone” (Microbial Cell Factories, 2022).

Tests used:
[1] = biological target: T1, human glucocorticoid receptor (NR3C1) (Homo sapiens, UniProt P04150); experiment: Glucocorticoid receptor transactivation reporter assay; type: cell-based; conditions: 10 µM, 24 h, luciferase reporter cells
T1 construct: constitutive high-level expression of full length, unmodified human glucocorticoid receptor (NR3C1)
T1 sequence (P04150 1-777): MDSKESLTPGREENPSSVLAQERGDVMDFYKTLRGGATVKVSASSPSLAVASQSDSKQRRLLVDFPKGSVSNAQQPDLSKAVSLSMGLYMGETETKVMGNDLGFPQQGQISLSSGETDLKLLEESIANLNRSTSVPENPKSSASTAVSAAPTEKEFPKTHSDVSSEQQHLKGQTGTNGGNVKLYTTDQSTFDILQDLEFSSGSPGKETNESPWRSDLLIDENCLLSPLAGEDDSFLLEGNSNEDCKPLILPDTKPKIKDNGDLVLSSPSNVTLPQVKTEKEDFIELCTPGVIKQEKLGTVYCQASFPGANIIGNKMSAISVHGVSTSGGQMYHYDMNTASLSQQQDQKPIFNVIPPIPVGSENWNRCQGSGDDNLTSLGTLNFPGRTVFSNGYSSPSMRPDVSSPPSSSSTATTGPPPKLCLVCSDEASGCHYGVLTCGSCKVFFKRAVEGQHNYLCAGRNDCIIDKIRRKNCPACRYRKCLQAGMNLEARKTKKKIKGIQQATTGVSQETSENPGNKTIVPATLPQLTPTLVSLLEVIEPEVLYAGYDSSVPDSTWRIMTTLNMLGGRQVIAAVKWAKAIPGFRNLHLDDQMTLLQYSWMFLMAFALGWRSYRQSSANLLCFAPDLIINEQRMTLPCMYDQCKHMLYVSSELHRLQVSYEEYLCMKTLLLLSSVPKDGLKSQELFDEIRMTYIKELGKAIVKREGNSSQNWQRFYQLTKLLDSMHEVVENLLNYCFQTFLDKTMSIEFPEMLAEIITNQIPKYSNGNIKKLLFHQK
Experimental: Glucocorticoid receptor transactivation assays kit was obtained from Indigo Biosciences (Human Glucocorticoid Receptor Reporter Assay Kit, Product #IB0020-32; Indigo Biosciences, State College, PA, USA) and was utilized to assess the activation of human glucocorticoid receptor by SCA and/or SCB. Briefly, stocks of the tested compounds were prepared and diluted in a medium provided by the manufacturer. Frozen reporter cells provided in the assay kit were thawed and compound dilutions were added immediately. Cells were incubated for 24 h and the activation response was measured on a luminometer (Perkin-Elmer, MA, USA). The cells consisted of non-human mammalian cells engineered by Indigo Biosciences to provide constitutive high-level expression of full length, unmodified human glucocorticoid receptor (NR3C1). The nonhuman mammalian reporter cells included a luciferase reporter gene functionally linked to a human glucocorticoid receptor-responsive promoter. The cells are engineered so that only interactions with the human receptor will induce luciferase expression in the treated reporter cells to quantitate nuclear receptor activation. Positive control ligand performance was measured by the manufacturer and provided in the technical manuals thus allowing accurate comparison for assay performance. […]

[2] = Photochemiluminescence (PCL-ACL) antioxidant assay; conditions: 0.1 mg/mL; Trolox equivalents per g of sample
Experimental: Photochemiluminescence assay, based on the methodology of Popov and Lewin [35], was performed to measure the antioxidant activity of cortisone, SCA and SCB compounds against superoxide anion radicals generated from luminol, a photosensitizer, when exposed to UV light at λmax = 351 nm. The antioxidant activity of compounds was measured using ACL kits (Analytic Jena, Jena, Germany) with a Photochem apparatus (Analytic Jena, Jena, Germany). In the PCL-ACL assay, the photochemical generation of free radicals is combined with the sensitive detection using chemiluminescence. In ACL studies, the kinetic light emission curve was monitored for 3 min and expressed as mM Trolox equivalents. The areas under the curves were calculated using the PCL soft control and analysis software. […] The observed inhibition of the signal was plotted against the concentration of Trolox added to the assay medium. The concentration of the added sample was such that the generated luminescence during the 3 min sampling interval fell within the limits of the standard curve. For ACL assay, 2.3 mL of reagent 1 (solvent and dilution reagent, methanol), 0.2 mL of reagent 2 (buffer solution), 25 μL of reagent 3 (photosensitizer: luminol 1 mmol L^−1), and 10 μL of standard or sample solution were mixed and measured. Luminol is used as a photosensitizer and as a detecting substance for free radicals. Trolox were used for the standard calibration curve from […].

[3] = tested on: IL-1α secretion in TNFα-stimulated HaCaT cells; experiment: TNFα-induced IL-1α secretion, ELISA; type: cell-based, human; conditions: 10 μM pretreatment 24 h, then 10 ng/mL TNFα 1 h, supernatant 24 h later
Experimental: HaCaT cells were cultured with Dulbecco’s modified Eagle’s medium High Glucose (Lonza, Milan, Italy) supplemented with 10% FBS, 100 U/mL penicillin, 100 μg/mL streptomycin and 2 mM L-glutamine as previously described. Cells were maintained in a humidified incubator at 37 °C with 5% CO2 and incubated until the monolayer was 80% confluent. Medium was changed every 2 days.
HaCaT cells were pretreated with or without 10 μM of both SCA and SCB for 24 h. Stock solutions of the two compounds were prepared in DMSO immediately before use and diluted to the final concentration in the culture medium. In some sets of experiments, betamethasone-17-valerate (10 µg/mL) served as a positive control; dimethyl sulfoxide (DMSO) served as a solvent control. After the pretreatments, cells were stimulated with 10 ng/mL TNFα for 1 h to induce the NFκB signaling pathway. Then, media were replaced with fresh culture medium. […]
IL-1α secretion, after the treatment with 10 and 20 µM of each compound and together at the same concentrations, was assayed by a commercially available ELISA kit (Thermo Scientific, Italy). […] The optical absorbance was measured with a spectrophotometer microplate reader at 450 nm and correction at 530 nm. Final concentrations were calculated by interpolation with a standard curve of Recombinant Human IL-1α provided by the kit and results expressed as pg/mL.

SMILES	glucocorticoid receptor activation [1]	antioxidant capacity, PCL-ACL assay [2] [µmol/g]	effect on TNFα-triggered IL-1α release [3]
Cc1ccc(O)c2c1CCC1C3CC[C@](O)(C(=O)CO)[C@@]3(C)CC(=O)[C@@]21O (stereo partly drawn) [SCA, 1,9β,17,21‐tetrahydoxy‐4‐methyl‐19‐nor‐9β‐pregna‐1,3,5(10)‐trien‐11,20‐dione]	activated glucocorticoid receptors	1375	markedly inhibited
Cc1ccc(O)c2c1CCC1C3CC[C@](O)([C@H](O)CO)[C@@]3(C)CC(=O)[C@@]21O (stereo partly drawn) [SCB, 1,9β,17,20β,21‐ pentahydoxy‐4‐methyl‐19‐nor‐9β‐pregna‐1,3,5(10)‐trien‐11‐one]	activated glucocorticoid receptors	1265	markedly inhibited
